Where a name gives a salt, the structure may show the parent alone.
What follows are compounds tested against T1, human β-Secretase (soluble part, AA1-AA460; sBACE-Fc) (Homo sapiens, UniProt P56817) (assay: TR-FRET assay). Settings: substrate (Europium)CEVNLDAEFK(Qsy7) 100 nM, pH 4.5, 15 min at RT; read-out: IC50 (nM) in TR-FRET assay.
T1 construct: The soluble part of the human β-Secretase (AA1-AA460) was cloned into the ASP2-Fc10-1-IRES-GFP-neoK mammalian expression vector; made in house
Assay type: biochemical

T1 sequence (P56817 22-460): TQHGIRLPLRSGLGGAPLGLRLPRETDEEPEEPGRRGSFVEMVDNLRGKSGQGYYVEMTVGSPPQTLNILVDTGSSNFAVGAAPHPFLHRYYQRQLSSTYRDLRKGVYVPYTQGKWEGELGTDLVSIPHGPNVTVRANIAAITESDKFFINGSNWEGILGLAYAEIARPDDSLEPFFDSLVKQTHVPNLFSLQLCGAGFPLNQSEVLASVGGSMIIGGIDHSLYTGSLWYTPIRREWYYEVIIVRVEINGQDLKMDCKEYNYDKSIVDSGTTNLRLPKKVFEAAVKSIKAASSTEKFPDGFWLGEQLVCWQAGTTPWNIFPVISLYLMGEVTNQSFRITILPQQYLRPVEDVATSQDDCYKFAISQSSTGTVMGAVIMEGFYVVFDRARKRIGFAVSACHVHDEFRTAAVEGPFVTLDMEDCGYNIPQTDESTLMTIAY

| SMILES | IC50 [nM] |
| --- | --- |
| COc1ccc(C#N)c(-c2cccc(C3(c4cccc(OS(C)(=O)=O)c4)N=C(N)N(C)C3=O)c2)c1 (stereo not drawn) [Example 176, 3-[2-Amino-4-(2′-cyano-5′-methoxybiphenyl-3-yl)-1-methyl-5-oxo-4,5-dihydro-1H-imidazol-4-yl]phenyl methanesulfonate hydrochloride] | 148 |
| COc1cc(Cl)cc(-c2cc(C3(c4cccc(OS(C)(=O)=O)c4)N=C(N)N(C)C3=O)ccc2F)c1 (stereo not drawn) [Example 92, 3-[2-Amino-4-(3′-chloro-6-fluoro-5′-methoxybiphenyl-3-yl)-1-methyl-5-oxo-4,5-dihydro-1H-imidazol-4-yl]phenyl methanesulfonate] | 179 |
| CN1C(=O)C(c2ccc(OS(=O)(=O)c3ccccc3)cc2)(c2ccc(F)c(-c3cncnc3)c2)N=C1N (stereo not drawn) [Example 185, 4-[2-Amino-4-(4-fluoro-3-pyrimidin-5-ylphenyl)-1-methyl-5-oxo-4,5-dihydro-1H-imidazol-4-yl]phenyl benzenesulfonate hydrochloride] | 19 |
| CCc1cc(C2(c3ccc(F)c(-c4cc(Cl)cc(OS(C)(=O)=O)c4)c3)N=C(N)N(C)C2=O)cc(CC)n1 (stereo not drawn) [Example 210, 5′-[2-Amino-4-(2,6-diethylpyridin-4-yl)-1-methyl-5-oxo-4,5-dihydro-1H-imidazol-4-yl]-5-chloro-2′-fluorobiphenyl-3-yl methanesulfonate hydrochloride] | 137 |
| COc1ccc(OC)c(S(=O)(=O)Oc2cccc(C3(c4ccc(F)c(-c5cncnc5)c4)N=C(N)N(C)C3=O)c2)c1 (stereo not drawn) [Example 235, 3-[2-Amino-4-(4-fluoro-3-pyrimidin-5-ylphenyl)-1-methyl-5-oxo-4,5-dihydro-1H-imidazol-4-yl]phenyl 2,5-dimethoxybenzenesulfonate] | 589 |
| CN1C(=O)C(c2ccc(OS(=O)(=O)C(F)(F)F)cc2)(c2ccc(F)c(-c3cncc(F)c3)c2)N=C1N (stereo not drawn) [Example 145, 4-{2-amino-4-[4-fluoro-3-(5-fluoropyridin-3-yl)phenyl]-1-methyl-5-oxo-4,5-dihydro-1H-imidazol-4-yl}phenyl trifluoromethanesulfonate 0.5 acetate] | 150 |
| COc1ccc(OC)c(S(=O)(=O)Oc2ccc(C3(c4ccc(F)c(-c5cccnc5)c4)N=C(N)N(C)C3=O)cc2)c1 (stereo not drawn) [Example 282, 4-[2-Amino-4-(4-fluoro-3-pyridin-3-ylphenyl)-1-methyl-5-oxo-4,5-dihydro-1H-imidazol-4-yl]phenyl 2,5-dimethoxybenzenesulfonate0.25 acetate] | 59 |
| CN1C(=O)C(c2cccc(OS(=O)(=O)c3ccc(-n4cccn4)cc3)c2)(c2ccc(F)c(-c3cncnc3)c2)N=C1N (stereo not drawn) [Example 238, 3-[2-Amino-4-(4-fluoro-3-pyrimidin-5-ylphenyl)-1-methyl-5-oxo-4,5-dihydro-1H-imidazol-4-yl]phenyl 4-(1H-pyrazol-1-yl)benzenesulfonate] | 46 |
| CN1C(=O)C(c2ccc(OS(C)(=O)=O)cc2)(c2ccc(F)c(C3=CCCCC3)c2)N=C1N (stereo not drawn) [Example 299, 4-[2-Amino-4-(3-cyclohex-1-en-1-yl-4-fluorophenyl)-1-methyl-5-oxo-4,5-dihydro-1H-imidazol-4-yl]phenyl methanesulfonate 0.5 acetate] | 330 |
| CCN1C(=O)C(c2ccc(OS(C)(=O)=O)cc2)(c2ccc(F)c(-c3cccc(OC)c3)c2)N=C1N (stereo not drawn) [Example 163, 4-[2-Amino-4-(6-fluoro-3′-methoxybiphenyl-3-yl)-1-ethyl-5-oxo-4,5-dihydro-1H-imidazol-4-yl]phenyl methanesulfonate 0.25acetate] | 395 |
| COc1cc(OS(C)(=O)=O)cc(-c2cc(C3(c4ccc(OC(F)F)cc4)N=C(N)N(C)C3=O)ccc2F)c1 (stereo not drawn) [Example 69, 5′-{2-Amino-4-[4-(difluoromethoxy)phenyl]-1-methyl-5-oxo-4,5-dihydro-1H-imidazol-4-yl}-2′-fluoro-5-methoxybiphenyl-3-yl methanesulfonate hydrochloride] | 23 |
| Cc1cc(C2(c3cccc(-c4cc(Cl)cc(OS(C)(=O)=O)c4)c3)N=C(N)N(C)C2=O)cc(C)n1 (stereo not drawn) [Example 306, 3′-(2-Amino-4-(2,6-dimethylpyridin-4-yl)-1-methyl-5-oxo-4,5-dihydro-1H-imidazo-4-yl)-5-chlorobiphenyl-3-yl methanesulfonate hydrochloride] | 89 |
| CN1C(=O)C(c2ccc(OS(=O)(=O)c3ccc4c(c3)oc(=O)n4C)cc2)(c2ccc(F)c(-c3cccnc3)c2)N=C1N (stereo not drawn) [Example 284, 4-[2-Amino-4-(4-fluoro-3-pyridin-3-ylphenyl)-1-methyl-5-oxo-4,5-dihydro-1H-imidazol-4-yl]phenyl 3-methyl-2-oxo-2,3-dihydro-1,3-benzoxazole-6-sulfonate 0.5acetate] | 60 |
| CN1C(=O)C(c2ccc(OS(=O)(=O)c3cn(C)cn3)cc2)(c2ccc(F)c(-c3cccnc3)c2)N=C1N (stereo not drawn) [Example 287, 4-[2-Amino-4-(4-fluoro-3-pyridin-3-ylphenyl)-1-methyl-5-oxo-4,5-dihydro-1H-imidazol-4-yl]phenyl 1-methyl-1H-imidazole-4-sulfonate] | 1020 |
| CN1C(=O)C(c2cccc(OS(=O)(=O)c3ccccc3)c2)(c2ccc(F)c(-c3cncnc3)c2)N=C1N (stereo not drawn) [Example 133, 3-[2-Amino-4-(4-fluoro-3-pyrimidin-5-ylphenyl)-1-methyl-5-oxo-4,5-dihydro-1H-imidazol-4-yl]phenyl benzenesulfonate hydrochloride] | 33 |
| CN1C(=O)C(c2cccc(OS(C)(=O)=O)c2)(c2cccc(-c3cnccc3Cl)c2)N=C1N (stereo not drawn) [Example 170, 3-{2-Amino-4-[3-(4-chloropyridin-3-yl)phenyl]-1-methyl-5-oxo-4,5-dihydro-1H-imidazol-4-yl}phenyl methanesulfonate hydrochloride] | 651 |
| CN1C(=O)C(c2cccc(OS(=O)(=O)c3ccc4c(c3)CCC4)c2)(c2ccc(F)c(-c3cccnc3)c2)N=C1N (stereo not drawn) [Example 283, 3-[2-Amino-4-(4-fluoro-3-pyridin-3-ylphenyl)-1-methyl-5-oxo-4,5-dihydro-1H-imidazol-4-yl]phenyl indane-5-sulfonate 0.25 acetate] | 30 |
| COc1cc(OS(C)(=O)=O)cc(-c2cccc(C3(c4ccc(OC(F)(F)F)cc4)N=C(N)N(C)C3=O)c2)c1 (stereo not drawn) [Example 58, 3′-{2-Amino-1-methyl-5-oxo-4-[4-(trifluoromethoxy)phenyl]-4,5-dihydro-1H-imidazol-4-yl}-5-methoxybiphenyl-3-ylmethanesulfonate] | 81 |
| CN1C(=O)C(c2cccc(OS(=O)(=O)c3ccc4c(c3)CCC4)c2)(c2ccc(F)c(-c3cncnc3)c2)N=C1N (stereo not drawn) [Example 239, 3-[2-Amino-4-(4-fluoro-3-pyrimidin-5-ylphenyl)-1-methyl-5-oxo-4,5-dihydro-1H-imidazol-4-yl]phenyl indane-5-sulfonate] | 19 |
| CN1C(=O)C(c2cccc(OS(=O)(=O)C(F)(F)F)c2)(c2cccc(C3=CCCC3)c2)N=C1N (stereo not drawn) [Example 197, 3-[2-Amino-4-(3-cyclopent-1-en-1-ylphenyl)-1-methyl-5-oxo-4,5-dihydro-1H-imidazol-4-yl]phenyl trifluoromethanesulfonate hydrochloride] | 721 |
| CN1C(=O)C(c2cccc(OS(C)(=O)=O)c2)(c2ccc(F)c(-c3cccc(Cl)c3)c2)N=C1N (stereo not drawn) [Example 91, 3-[2-Amino-4-(3′-chloro-6-fluorobiphenyl-3-yl)-1-methyl-5-oxo-4,5-dihydro-1H-imidazol-4-yl]phenyl methanesulfonate] | 228 |
